Measurements reported in the NIST ThermoML archive (doi:10.1016/j.jct.2011.07.011).
Where “and” joins values, the source holds several entries; their conditions need not be identical. Equal values may be shown once. Numbers after ± are expanded uncertainties.

Details: Crystal; Heating/Cooling curves

Triple point temperature: 24.54 ± 0.077 K and 24.69 ± 0.077 K
Compound: [Ne] [neon]
